Data from patent publication US12540131B2 (Merck Sharp & Dohme LLC, priority 2019, dated 2026).

Each molecule was assayed against GST tagged truncated human mutant G2019S LRRK2 (Homo sapiens (Human), UniProt Q5S007, G2019S) (assay: LRRK2 Km ATP LanthaScreen Assay). Conditions: G2019S LRRK2, 134 μM ATP (Km ATP), mean values.
Type: biochemical
In short: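 Enzyme (GST-tagged, truncated) was preincubated with compound for 15 min at RT in 50 mM Tris pH 8.5, 10 mM MgCl2, 0.01% Brij-35, 1 mM EGTA, 2 mM DTT and 0.05 mM orthovanadate. Fluorescein-LRRKtide and 134 μM ATP (Km) were then added for 90 min. EDTA and Tb-anti-pERM antibody stopped the reaction; the TR-FRET 520/495 ratio gave 4-parameter IC50s, reported as mean pIC50.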

GST tagged truncated human mutant G2019S LRRK2, sequence (Q5S007 970-2527 G2019S): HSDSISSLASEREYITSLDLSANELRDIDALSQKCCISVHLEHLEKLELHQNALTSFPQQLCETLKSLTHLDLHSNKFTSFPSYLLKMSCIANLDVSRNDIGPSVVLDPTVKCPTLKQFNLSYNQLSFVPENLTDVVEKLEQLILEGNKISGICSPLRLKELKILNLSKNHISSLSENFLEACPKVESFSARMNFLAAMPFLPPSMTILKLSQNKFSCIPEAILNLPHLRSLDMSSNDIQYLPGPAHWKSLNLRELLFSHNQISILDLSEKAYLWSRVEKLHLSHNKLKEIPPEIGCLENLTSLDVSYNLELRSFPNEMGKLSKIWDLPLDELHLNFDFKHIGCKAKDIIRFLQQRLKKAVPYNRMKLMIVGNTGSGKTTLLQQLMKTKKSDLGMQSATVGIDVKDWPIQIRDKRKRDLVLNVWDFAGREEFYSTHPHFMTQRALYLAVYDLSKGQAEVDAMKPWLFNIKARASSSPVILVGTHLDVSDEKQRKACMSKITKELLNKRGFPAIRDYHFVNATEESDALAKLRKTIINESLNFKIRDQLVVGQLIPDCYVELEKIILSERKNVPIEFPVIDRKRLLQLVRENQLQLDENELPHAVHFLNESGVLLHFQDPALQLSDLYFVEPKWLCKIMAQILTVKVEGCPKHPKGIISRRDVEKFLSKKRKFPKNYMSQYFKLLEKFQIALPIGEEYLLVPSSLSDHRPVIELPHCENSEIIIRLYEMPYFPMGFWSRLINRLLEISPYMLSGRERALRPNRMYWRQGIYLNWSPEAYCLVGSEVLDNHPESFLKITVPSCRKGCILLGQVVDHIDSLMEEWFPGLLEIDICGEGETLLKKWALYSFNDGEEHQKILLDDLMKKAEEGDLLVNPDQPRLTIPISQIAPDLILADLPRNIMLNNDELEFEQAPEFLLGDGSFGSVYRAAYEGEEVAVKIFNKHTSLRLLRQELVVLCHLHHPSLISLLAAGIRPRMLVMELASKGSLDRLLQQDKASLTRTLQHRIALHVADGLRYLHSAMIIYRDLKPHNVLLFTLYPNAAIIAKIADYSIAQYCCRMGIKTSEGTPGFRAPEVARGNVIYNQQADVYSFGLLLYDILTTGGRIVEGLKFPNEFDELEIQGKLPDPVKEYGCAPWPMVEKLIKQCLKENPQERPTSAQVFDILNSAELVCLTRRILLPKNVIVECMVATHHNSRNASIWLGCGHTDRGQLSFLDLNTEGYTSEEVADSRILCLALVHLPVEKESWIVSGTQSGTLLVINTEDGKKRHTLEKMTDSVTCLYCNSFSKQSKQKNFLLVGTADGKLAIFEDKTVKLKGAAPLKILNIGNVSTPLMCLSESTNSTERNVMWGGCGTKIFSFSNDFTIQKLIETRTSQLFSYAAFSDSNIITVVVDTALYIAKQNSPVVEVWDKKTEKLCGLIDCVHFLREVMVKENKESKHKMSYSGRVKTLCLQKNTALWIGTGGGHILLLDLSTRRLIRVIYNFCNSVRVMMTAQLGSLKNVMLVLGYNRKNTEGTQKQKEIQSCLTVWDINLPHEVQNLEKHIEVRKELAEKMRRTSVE

SMILES | LRRK2 pIC50
Cc1cc2cnc(Nc3cnn(C)c3C)nc2cc1C1CCN([C@@H]2COC[C@@H]2O)CC1 (single isomer, unassigned) [Ex-2.79, (3S,4S) or (3R,4R) 4-(4-{2-[(1,5-dimethyl-1H-pyrazol-4-yl)amino]-6-methylquinazolin-7-yl}piperidin-1-yl)oxolan-3-ol] | >9.20
Cc1c(Nc2ncc3cc(Cl)c(C4CCN([C@]5(C)COC[C@@H]5O)CC4)cc3n2)cnn1C (single isomer, unassigned) [Ex-2.77, (3S,4S) or (3R,4R) 4-(4-{6-chloro-2-[(1,5-dimethyl-1H-pyrazol-4-yl)amino]quinazolin-7-yl}piperidin-1-yl)-4-methyloxolan-3-ol] | 8.01
Cn1ncc(Nc2ncc3cc(Cl)c([C@H]4CCN([C@H]5COC[C@H]5O)C[C@@H]4F)cc3n2)c1Cl (single isomer, unassigned) [Ex-4.188, (3S,4S)(3S,4S) or (3S,4S)(3R,4R) or (3R,4R)(3S,4S) or (3R,4R)(3R,4R) 4-(4-{6-chloro-2-[(5-chloro-1-methyl-1H-pyrazol-4-yl)amino]quinazolin-7-yl}-3-fluoropiperidin-1-yl)oxolan-3-ol] | 7.83
COCC12CC(n3ncc(Nc4ncc5cc(Cl)c(C6CCN(C7COC7)CC6)cc5n4)c3C)(C1)C2 [Ex-2.31, 6-chloro-N-{1-[3-(methoxymethyl)bicyclo[1.1.1]pentan-1-yl]-5-methyl-1H-pyrazol-4-yl}-7-[1-(oxetan-3-yl)piperidin-4-yl]quinazolin-2-amine] | >9.20
N#Cc1cc2cnc(Nc3cnn(C4CC4(F)F)c3Cl)nc2cc1[C@@H]1CCN(C2COC2)C[C@H]1F (single isomer, unassigned) [Ex-6.5, (R)(3S,4S) or (S)(3S,4S) or (R)(3R,4R) or (S)(3R,4R) 2-((5-chloro-1-(2,2-difluorocyclopropyl)-1H-pyrazol-4-yl)amino)-7-(3-fluoro-1-(oxetan-3-yl)piperidin-4-yl)quinazoline-6-carbonitrile] | >9.20
Cc1cc2cnc(Nc3cnn(C4CC4(F)F)c3Cl)nc2cc1[C@H]1CCN(C2COC[C@H]2O)C[C@@H]1F (single isomer, unassigned) [Ex-4.140, (R)(3S,4S)(3S,4S) or (R)(3S,4S)(3R,4R) or (R)(3R,4R)(3S,4S) or (R)(3R,4R)(3R,4R) or (S)(3S,4S)(3S,4S) or (S)(3S,4S)(3R,4R) or (S)(3R,4R)(3S,4S) or (S)(3R,4R)(3R,4R) 4-[4-(2-{[5-chloro-1-(2,2-difluorocyclopropyl)-1H-pyrazol-4-yl]amino}-6-methylquinazolin-7-yl)-3-fluoropiperidin-1-yl]oxolan-3-ol] | 9.19
CC(C)(Cn1ncc(Nc2ncc3cc(Cl)c(C4CCN(C5COC5)CC4)cc3n2)c1Cl)OC(F)F [Ex-2.13, 6-chloro-N-{5-chloro-1-[2-(difluoromethoxy)-2-methylpropyl]-1H-pyrazol-4-yl}-7-[1-(oxetan-3-yl)piperidin-4-yl]quinazolin-2-amine] | 9.15
F[C@@H]1CN(C2COC2)C[C@H]1c1cc2nc(Nc3cnn(C4CC4)c3Cl)ncc2cc1Cl (single isomer, unassigned) [Ex-4.42, (3S,4R) or (3R,4S) 6-chloro-N-(5-chloro-1-cyclopropyl-1H-pyrazol-4-yl)-7-[4-fluoro-1-(oxetan-3-yl)pyrrolidin-3-yl]quinazolin-2-amine] | 7.21
CC1OCC1N1CCC(c2cc3nc(Nc4cnn(CC(C)(C)O)c4Cl)ncc3cc2Cl)CC1 (single isomer, unassigned) [Ex-4.75, (2R,3R) or (2S,3S) or (2S,3R) or (2R,3S) 1-[5-chloro-4-({6-chloro-7-[1-(2-methyloxetan-3-yl)piperidin-4-yl]quinazolin-2-yl}amino)-1H-pyrazol-1-yl]-2-methylpropan-2-ol] | 8.14
Cc1cc2cnc(Nc3cnn(C4CC4)c3Cl)nc2cc1[C@@H]1CCN(C2COC[C@H]2O)C[C@H]1F (single isomer, unassigned) [Ex-4.136, (3S,4S)(3S,4S) or (3S,4S)(3R,4R) or (3R,4R)(3S,4S) or (3R,4R)(3R,4R) 4-(4-{2-[(5-chloro-1-cyclopropyl-1H-pyrazol-4-yl)amino]-6-methylquinazolin-7-yl}-3-fluoropiperidin-1-yl)oxolan-3-ol] | 8.41
COC(C)(C)Cn1ncc(Nc2ncc3cc(Cl)c(C4CCN(C5COC5)CC4)cc3n2)c1C [Ex-2.14, 6-chloro-N-[1-(2-methoxy-2-methylpropyl)-5-methyl-1H-pyrazol-4-yl]-7-[1-(oxetan-3-yl)piperidin-4-yl]quinazolin-2-amine] | 9.17
Cc1c(Nc2ncc3cc(Cl)c([C@H]4CCN(C5CCCC5O)C[C@@H]4F)cc3n2)cnn1C1CC1 (single isomer, unassigned) [Ex-4.160, (1S,2R)(3S,4S) or (1R,2S)(3S,4S) or (1R,2R)(3S,4S) or (1S,2S)(3S,4S) or (1S,2R)(3R,4R) or (1R,2S)(3R,4R) or (1R,2R)(3R,4R) or (1S,2S)(3R,4R) 2-(4-{6-chloro-2-[(1-cyclopropyl-5-methyl-1H-pyrazol-4-yl)amino]quinazolin-7-yl}-3-fluoropiperidin-1-yl)cyclopentan-1-ol] | >9.20
O[C@@H]1COCC1N1CC[C@H](c2cc3nc(Nc4cnn(C5CC5(F)F)c4Cl)ncc3cc2Cl)[C@@H](F)C1 (single isomer, unassigned) [Ex-4.184, (R)(3S,4S)(3S,4S) or (R)(3S,4S)(3R,4R) or (R)(3R,4R)(3S,4S) or (R)(3R,4R)(3R,4R) or (S)(3S,4S)(3S,4S) or (S)(3S,4S)(3R,4R) or (S)(3R,4R)(3S,4S) or (S)(3R,4R)(3R,4R) 4-(6-chloro-2-{[5-chloro-1-(2,2-difluorocyclopropyl)-1H-pyrazol-4-yl]amino}quinazolin-7-yl)-3-fluoropiperidin-1-yl]oxolan-3-ol] | >9.20
Cc1cc(Nc2ncc3cc(C)c([C@H]4CCN([C@H]5COC[C@H]5O)C[C@@H]4F)cc3n2)n(C)n1 (single isomer, unassigned) [Ex-5.12, (3S,4S)(3S,4S) or (3S,4S)(3R,4R) or (3R,4R)(3S,4S) or (3R,4R)(3R,4R) 4-(4-{2-[(1,3-dimethyl-1H-pyrazol-5-yl)amino]-6-methylquinazolin-7-yl}-3-fluoropiperidin-1-yl)oxolan-3-ol] | 6.03
Cc1c(Nc2ncc3cc(Cl)c(C4CCN([C@@H]5COC[C@@H]5O)CC4)cc3n2)cnn1C12CC(C1)C2 (single isomer, unassigned) [Ex-2.28, (3S,4S) or (3R,4R) 4-[4-(2-{[1-(bicyclo[1.1.1]pentan-1-yl)-5-methyl-1H-pyrazol-4-yl]amino}-6-chloroquinazolin-7-yl)piperidin-1-yl]oxolan-3-ol] | >9.20
Cc1cc2cnc(Nc3cnn(CC(C)(C)O)c3Cl)nc2cc1[C@@H]1CCN(C2COC2)C[C@H]1F (single isomer, unassigned) [Ex-4.81, (3S,4S) or (3R,4R) 1-[5-chloro-4-({7-[3-fluoro-1-(oxetan-3-yl)piperidin-4-yl]-6-methylquinazolin-2-yl}amino)-1H-pyrazol-1-yl]-2-methylpropan-2-ol] | 9.13
Cc1c(Nc2ncc3cc(Cl)c(C4CCN(CC(C)(C)O)CC4)cc3n2)cnn1C1CC1 [Ex-4.217, 1-(4-{6-chloro-2-[(1-cyclopropyl-5-methyl-1H-pyrazol-4-yl)amino]quinazolin-7-yl}piperidin-1-yl)-2-methylpropan-2-ol] | 8.57
FC(F)Cn1ncc(Nc2ncc3cc(Cl)c([C@H]4CCN(C5COC5)C[C@@H]4F)cc3n2)c1Cl (single isomer, unassigned) [Ex-4.38, (3S,4S) or (3R,4R) 6-chloro-N-[5-chloro-1-(2,2-difluoroethyl)-1H-pyrazol-4-yl]-7-[3-fluoro-1-(oxetan-3-yl)piperidin-4-yl]quinazolin-2-amine] | 9.11
CC1(n2ncc(Nc3ncc4cc(Cl)c(C5CCN(C(F)(F)F)CC5)cc4n3)c2Cl)CC1 [Ex-4.7, 6-chloro-N-(5-chloro-1-(1-methylcyclopropyl)-1H-pyrazol-4-yl)-7-(1-(trifluoromethyl)piperidin-4-yl)quinazolin-2-amine] | 7.74
O[C@@H]1COC[C@@H]1N1CCC(c2cc3nc(Nc4cnn(C56CC(C5)C6)c4)ncc3cc2Cl)CC1 (single isomer, unassigned) [Ex-4.152, (3S,4S) or (3R,4R) 4-[4-(2-{[1-(bicyclo[1.1.1]pentan-1-yl)-1H-pyrazol-4-yl]amino}-6-chloroquinazolin-7-yl)piperidin-1-yl]oxolan-3-ol] | >9.20

Same assay, conditions: G2019S LRRK2, 134 μM ATP (Km ATP), mean values; read-out: LRRK2 pIC50 (converted)

SMILES | IC50
Cc1c(Nc2ncc3cc(Cl)c(C4CCN(C5COC5)[C@H](C)C4)cc3n2)cnn1C1CC1 (single isomer, unassigned) [Ex-1.13, (S) or (R) 6-chloro-N-(1-cyclopropyl-5-methyl-1H-pyrazol-4-yl)-7-(2-methyl-1-(oxetan-3-yl)piperidin-4-yl)quinazolin-2-amine] | 0.776 nM
Cc1c(Nc2ncc3cc(Cl)c(C4CCN(CC(O)c5ccc(Cl)cc5)CC4)cc3n2)cnn1C1CC1 (single isomer, unassigned) [Ex-4.224, (S) or (R) 2-(4-{6-chloro-2-[(1-cyclopropyl-5-methyl-1H-pyrazol-4-yl)amino]quinazolin-7-yl}piperidin-1-yl)-1-(4-chlorophenyl)ethan-1-ol] | 13.8 nM
Cc1c(Nc2ncc3cc(Cl)c(C4CCN(C5COC(C)(C)C5)CC4)cc3n2)cnn1C1CC1 (single isomer, unassigned) [Ex-4.173, (R) or (S) 6-chloro-N-(1-cyclopropyl-5-methyl-1H-pyrazol-4-yl)-7-[1-(5,5-dimethyloxolan-3-yl)piperidin-4-yl]quinazolin-2-amine] | 3.72 nM
